Measurements published in patent EP4230620A1, “SUBSTITUTED N-AMINO-N-BENZOIC ACID URACILS, THEIR SALTS AND USE OF SAID COMPOUNDS AS HERBICIDAL AGENTS” (Bayer Aktiengesellschaft, priority 2022, dated 2023).

Assays:
Type in all cases: in vivo
Amaranthus retroflexus = experiment: Post-emergence herbicidal action in greenhouse against AMARE; settings: post-emergence spray, 600 l/ha water, visual rating after ca. 3 weeks vs untreated controls, 100% = plants dead, 0% = like control plants
Excerpt: (§1) Biologische Beispiele: • Die folgenden Abkürzungen werden für die in den folgenden Tabellen aufgeführten Kultur- und Schadpflanzen verwendet: ABUTH: Abutilon theophrasti ALOMY: Alopecurus myosuroides AMARE: Amaranthus retroflexus BRSNS: Brassica napus DIGSA: Digitaria sanguinalis ECHCG: Echinochloa crus-galli GLXMA: Glycine max KCHSC: Kochia scoparia LOLRI: Lolium rigidum MATIN: Matricaria inodora ORYZA: Oryza sativa PHPBU: Pharbitis purpurea POLCO: Polygonum convolvulus SETVI: Setaria viridis VERPE: Veronica persica VIOTR: Viola tricolor TRZAS: Triticum aestivum ZEAMX: Zea mays • A. Herbizide Wirkung im Nachauflauf
(§2) Samen von mono- bzw. dikotylen Unkrautpflanzen wurden in Kunststoff- oder Holzfasertöpfen in sandigem Lehmboden ausgelegt, mit Erde abgedeckt und im Gewächshaus unter kontrollierten Wachstumsbedingungen angezogen. 2 bis 3 Wochen nach der Aussaat wurden die Versuchspflanzen im Einblattstadium behandelt. Die in Form von benetzbaren Pulvern (WP) oder als Emulsionskonzentrate (EC) formulierten erfindungsgemäßen Verbindungen wurden dann als wässrige Suspension bzw. Emulsion unter Zusatz von 0,5% Additiv mit einer Wasseraufwandmenge von umgerechnet 600 l/ha auf die grünen Pflanzenteile gesprüht. Nach ca. 3 Wochen Standzeit der Versuchspflanzen im Gewächshaus, unter optimalen Wachstumsbedingungen, wurde die Wirkung der Präparate visuell im Vergleich zu unbehandelten Kontrollen bonitiert. Beispielsweise bedeutet 100% Wirkung = Pflanzen sind abgestorben, 0% Wirkung = wie Kontrollpflanzen.
(§3) In den nachstehenden Tabellen A1 bis A11 sind die Wirkungen ausgewählter Verbindungen der allgemeinen Formel (I) gemäß der Tabelle 1 auf verschiedene Schadpflanzen und einer Aufwandmenge entsprechend 20 g/ha und niedriger, die gemäß zuvor genannter Versuchsvorschrift erhalten wurden, dargestellt. Tabelle A1a: Nachauflaufwirkung bei 1,25 g/ha gegen ABUTH in %

Veronica persica = experiment: Post-emergence herbicidal action in greenhouse against VERPE; settings: visual rating after ca. 3 weeks
Excerpt: as §1, §2, §3

Setaria viridis = experiment: Post-emergence herbicidal action in greenhouse against SETVI; settings: visual rating after ca. 3 weeks
Excerpt: as §1, §2, §3

Zea mays = experiment: Post-emergence action on crop plants in greenhouse, ZEAMX; settings: crop plant, 100% = plants dead, 0% = like control plants
Excerpt: as §1
as §2, with “Kulturpflanzen” for “Unkrautpflanzen”
as §3, with “B1” for “A1”, “B4” for “A11”, “Kulturpflanzen” for “Schadpflanzen”, “B1a:” for “A1a:”, “ZEAMX” for “ABUTH”

Matricaria inodora = experiment: Post-emergence herbicidal action in greenhouse against MATIN; settings: visual rating after ca. 3 weeks
Excerpt: as §1, §2, §3

Digitaria sanguinalis = experiment: Post-emergence herbicidal action in greenhouse against DIGSA; settings: visual rating after ca. 3 weeks
Excerpt: as §1, §2, §3

Alopecurus myosuroides = experiment: Post-emergence herbicidal action in greenhouse against ALOMY; settings: post-emergence spray, 600 l/ha water, visual rating after ca. 3 weeks vs untreated controls, 100% = plants dead, 0% = like control plants
Excerpt: as §1, §2, §3

Lolium rigidum = experiment: Post-emergence herbicidal action in greenhouse against LOLRI; settings: 20 g/ha; post-emergence spray, 600 l/ha water; visual rating after ca. 3 weeks vs untreated controls; 100% = plants dead, 0% = like control plants
Excerpt: as §1, §2, §3

Triticum aestivum = experiment: Post-emergence action on crop plants in greenhouse, TRZAS; settings: crop plant, visual rating after ca. 3 weeks, 100% = plants dead, 0% = like control plants
Excerpt: as §1
as §2, with “Kulturpflanzen” for “Unkrautpflanzen”
as §3, with “B1” for “A1”, “B4” for “A11”, “Kulturpflanzen” for “Schadpflanzen”, “B1a:” for “A1a:”, “ZEAMX” for “ABUTH”

Oryza sativa = experiment: Post-emergence action on crop plants in greenhouse, ORYZA; settings: 1,25 g/ha, crop plant, visual rating after ca. 3 weeks, 100% = plants dead, 0% = like control plants
Excerpt: as §1
as §2, with “Kulturpflanzen” for “Unkrautpflanzen”
as §3, with “B1” for “A1”, “B4” for “A11”, “Kulturpflanzen” for “Schadpflanzen”, “B1a:” for “A1a:”, “ZEAMX” for “ABUTH”

Polygonum convolvulus = experiment: Post-emergence herbicidal action in greenhouse against POLCO; settings: visual rating after ca. 3 weeks
Excerpt: as §1, §2, §3

Abutilon theophrasti = experiment: Post-emergence herbicidal action in greenhouse against ABUTH; settings: post-emergence spray, 600 l/ha water, visual rating after ca. 3 weeks vs untreated controls, 100% = plants dead, 0% = like control plants
Excerpt: as §1, §2, §3

Pharbitis purpurea = experiment: Post-emergence herbicidal action in greenhouse against PHBPU; settings: visual rating after ca. 3 weeks
Excerpt: as §1, §2, §3

Viola tricolor = experiment: Post-emergence herbicidal action in greenhouse against VIOTR; settings: visual rating after ca. 3 weeks
Excerpt: as §1, §2, §3

[1] = 1,25 g/ha, post-emergence, visual rating after ca. 3 weeks

Structure (SMILES)	Nachauflaufwirkung gegen AMARE (Amaranthus retroflexus; 1,25 g/ha)	Nachauflaufwirkung gegen AMARE (Amaranthus retroflexus; 5 g/ha)	Nachauflaufwirkung gegen AMARE (Amaranthus retroflexus; 20 g/ha)	Nachauflaufwirkung gegen VERPE (Veronica persica; 5 g/ha)	Nachauflaufwirkung gegen VERPE (Veronica persica; 20 g/ha)	Nachauflaufwirkung gegen SETVI (Setaria viridis; 1,25 g/ha)	Nachauflaufwirkung gegen SETVI (Setaria viridis; 5 g/ha)	Nachauflaufwirkung gegen SETVI (Setaria viridis; 20 g/ha)	Nachauflaufwirkung gegen MATIN (Matricaria inodora; 5 g/ha)	Nachauflaufwirkung gegen MATIN (Matricaria inodora; 20 g/ha)	Nachauflaufwirkung gegen DIGSA (Digitaria sanguinalis; 5 g/ha)	Nachauflaufwirkung gegen DIGSA (Digitaria sanguinalis; 20 g/ha)	Nachauflaufwirkung gegen ALOMY (Alopecurus myosuroides; 20 g/ha)	Nachauflaufwirkung gegen TRZAS (Triticum aestivum; 1,25 g/ha)	Nachauflaufwirkung gegen TRZAS (Triticum aestivum; 5 g/ha)	Nachauflaufwirkung gegen ORYZA (Oryza sativa)	Nachauflaufwirkung gegen POLCO (Polygonum convolvulus; 20 g/ha)	Nachauflaufwirkung gegen ABUTH (Abutilon theophrasti; 1,25 g/ha)	Nachauflaufwirkung gegen ABUTH (Abutilon theophrasti; 5 g/ha)	Nachauflaufwirkung gegen ABUTH (Abutilon theophrasti; 20 g/ha)	other results
CC(C)(OC(=O)c1cc(-n2c(=O)cc(C(F)(F)F)n(N)c2=O)c(F)cc1Cl)C(=O)OCc1ccccn1 [I.1-286]	100%	100%	100%	100%	100%	100%	100%	100%	90%	100%	100%	100%	90%	0%	10%	0%	100%	90%	100%	100%	Nachauflaufwirkung gegen VERPE (Veronica persica; 1,25 g/ha): 100%; Nachauflaufwirkung gegen ZEAMX (Zea mays; [1]): 20%; Nachauflaufwirkung gegen LOLRI (Lolium rigidum): 90%; Nachauflaufwirkung gegen POLCO (Polygonum convolvulus; 5 g/ha): 100%; Nachauflaufwirkung gegen PHBPU (Pharbitis purpurea; 1,25 g/ha): 100%; Nachauflaufwirkung gegen PHBPU (Pharbitis purpurea; 5 g/ha): 100%; Nachauflaufwirkung gegen PHBPU (Pharbitis purpurea; 20 g/ha): 100%; Nachauflaufwirkung gegen VIOTR (Viola tricolor; 1,25 g/ha): 90%; Nachauflaufwirkung gegen VIOTR (Viola tricolor; 5 g/ha): 100%; Nachauflaufwirkung gegen VIOTR (Viola tricolor; 20 g/ha): 100%
CC(C)(OC(=O)c1cc(-n2c(=O)cc(C(F)(F)F)n(N)c2=O)c(F)cc1Cl)C(=O)OCC#N [I.1-176, 1-(Cyanmethoxy)-2-methyl-1-oxopropan-2-yl-5-[3-amino-2,6-dioxo-4-(trifluormethyl)-3,6-dihydropyrimidin-1(2H)-yl]-2-chlor-4-fluorbenzoat]	100%	100%	100%	100%	100%	100%	100%	100%	100%	100%	100%	100%	100%	0%	20%	20%	100%	100%	100%	100%	Nachauflaufwirkung gegen VERPE (Veronica persica; 1,25 g/ha): 80%; Nachauflaufwirkung gegen LOLRI (Lolium rigidum): 80%; Nachauflaufwirkung gegen POLCO (Polygonum convolvulus; 5 g/ha): 100%; Nachauflaufwirkung gegen PHBPU (Pharbitis purpurea; 1,25 g/ha): 90%; Nachauflaufwirkung gegen PHBPU (Pharbitis purpurea; 5 g/ha): 100%; Nachauflaufwirkung gegen PHBPU (Pharbitis purpurea; 20 g/ha): 100%; Nachauflaufwirkung gegen VIOTR (Viola tricolor; 1,25 g/ha): 90%; Nachauflaufwirkung gegen VIOTR (Viola tricolor; 5 g/ha): 100%; Nachauflaufwirkung gegen VIOTR (Viola tricolor; 20 g/ha): 100%
COCCOC(=O)C(C)(C)OC(=O)c1cc(-n2c(=O)cc(C(F)(F)F)n(N)c2=O)c(F)cc1Cl [I.1-1]	100%	100%	100%	100%	100%	100%	100%	100%	100%	100%	100%	100%	90%	0%	0%	0%	100%	90%	100%	100%	Nachauflaufwirkung gegen VERPE (Veronica persica; 1,25 g/ha): 100%; Nachauflaufwirkung gegen ZEAMX (Zea mays; [1]): 0%; Nachauflaufwirkung gegen ALOMY (Alopecurus myosuroides; 5 g/ha): 80%; Nachauflaufwirkung gegen LOLRI (Lolium rigidum): 90%; Nachauflaufwirkung gegen POLCO (Polygonum convolvulus; 5 g/ha): 100%; Nachauflaufwirkung gegen PHBPU (Pharbitis purpurea; 1,25 g/ha): 100%; Nachauflaufwirkung gegen PHBPU (Pharbitis purpurea; 5 g/ha): 100%; Nachauflaufwirkung gegen PHBPU (Pharbitis purpurea; 20 g/ha): 100%; Nachauflaufwirkung gegen VIOTR (Viola tricolor; 1,25 g/ha): 80%; Nachauflaufwirkung gegen VIOTR (Viola tricolor; 5 g/ha): 100%; Nachauflaufwirkung gegen VIOTR (Viola tricolor; 20 g/ha): 100%
CC(C)=NOC(=O)C(C)(C)OC(=O)c1cc(-n2c(=O)cc(C(F)(F)F)n(N)c2=O)c(F)cc1Cl [I.1-491]	100%	100%	100%	100%	100%	100%	100%	100%	100%	100%	100%	100%	100%	0%	0%	0%	100%	100%	100%	100%	Nachauflaufwirkung gegen ZEAMX (Zea mays; [1]): 20%; Nachauflaufwirkung gegen LOLRI (Lolium rigidum): 80%; Nachauflaufwirkung gegen PHBPU (Pharbitis purpurea; 1,25 g/ha): 100%; Nachauflaufwirkung gegen PHBPU (Pharbitis purpurea; 5 g/ha): 100%; Nachauflaufwirkung gegen PHBPU (Pharbitis purpurea; 20 g/ha): 100%; Nachauflaufwirkung gegen VIOTR (Viola tricolor; 1,25 g/ha): 80%; Nachauflaufwirkung gegen VIOTR (Viola tricolor; 5 g/ha): 100%; Nachauflaufwirkung gegen VIOTR (Viola tricolor; 20 g/ha): 100%
C=CCOC(=O)C(C)(C)OC(=O)c1cc(-n2c(=O)cc(C(F)(F)F)n(N)c2=O)ccc1Cl [I.2-471]	100%	100%	100%	100%	100%	100%	100%	100%	90%	100%	100%	100%	80%	0%	0%	0%	100%	90%	100%	100%	Nachauflaufwirkung gegen VERPE (Veronica persica; 1,25 g/ha): 100%; Nachauflaufwirkung gegen ZEAMX (Zea mays; [1]): 20%; Nachauflaufwirkung gegen ZEAMX (Zea mays; 5 g/ha, post-emergence spray, 600 l/ha water, visual rating after ca. 3 weeks vs untreated controls): 20%; Nachauflaufwirkung gegen TRZAS (Triticum aestivum; 20 g/ha): 10%; Nachauflaufwirkung gegen PHBPU (Pharbitis purpurea; 1,25 g/ha): 100%; Nachauflaufwirkung gegen PHBPU (Pharbitis purpurea; 5 g/ha): 100%; Nachauflaufwirkung gegen PHBPU (Pharbitis purpurea; 20 g/ha): 100%; Nachauflaufwirkung gegen VIOTR (Viola tricolor; 1,25 g/ha): 100%; Nachauflaufwirkung gegen VIOTR (Viola tricolor; 5 g/ha): 100%; Nachauflaufwirkung gegen VIOTR (Viola tricolor; 20 g/ha): 100%
